The source of these data is PubChem BioAssay AID248 (DTP/NCI, 2004).

This assay has as its system L1210 leukemia ip in BDF1 mice, survival T/C. As to the kind of experiment: NCI In Vivo Anticancer Drug Screen. Data for tumor model L1210 Leukemia (intraperitoneal) in B6D2F1 (BDF1) mice. As to conditions: endpoint: mean survival time, higher = longer survival. The essentials: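 Value reflects the ratio of survival in compound-treated mice to survival in vehicle-treated controls, with both groups carrying the same transplanted tumor.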

[1] abbreviates: dose: 50.0 mg/kg/injection, schedule: Q01DX001 (ip), vehicle: saline.
Setting [2] is: dose: 100.0 mg/kg/injection, schedule: Q01DX001 (ip), vehicle: saline.
Where [3] appears, read: dose: 200.0 mg/kg/injection, schedule: Q01DX001 (ip), vehicle: saline.
The mark [4] stands for this setting: dose: 12.5 mg/kg/injection, schedule: Q04DX003 (ip), vehicle: Klucel (hydroxypropylcellulose) (HPC).
[5] abbreviates: dose: 25.0 mg/kg/injection, schedule: Q04DX003 (ip), vehicle: Klucel (hydroxypropylcellulose) (HPC).
The mark [6] stands for this setting: dose: 50.0 mg/kg/injection, schedule: Q04DX003 (ip), vehicle: Klucel (hydroxypropylcellulose) (HPC).
Setting [7] is: dose: 100.0 mg/kg/injection, schedule: Q01DX001 (ip), vehicle: Klucel (hydroxypropylcellulose) (HPC).
Setting [8] is: dose: 100.0 mg/kg/injection, schedule: Q04DX003 (ip), vehicle: Klucel (hydroxypropylcellulose) (HPC).
[9] abbreviates: dose: 200.0 mg/kg/injection, schedule: Q01DX001 (ip), vehicle: Klucel (hydroxypropylcellulose) (HPC).
Setting [10] is: dose: 200.0 mg/kg/injection, schedule: Q04DX003 (ip), vehicle: Klucel (hydroxypropylcellulose) (HPC).
[11] abbreviates: dose: 400.0 mg/kg/injection, schedule: Q01DX001 (ip), vehicle: Klucel (hydroxypropylcellulose) (HPC).
Setting [12] is: dose: 400.0 mg/kg/injection, schedule: Q04DX003 (ip), vehicle: Klucel (hydroxypropylcellulose) (HPC).
Where [13] appears, read: dose: 100.0 mg/kg/injection, schedule: Q01DX001 (ip), vehicle: carboxymethylcellulose (CMC).
The mark [14] stands for this setting: dose: 200.0 mg/kg/injection, schedule: Q01DX001 (ip), vehicle: carboxymethylcellulose (CMC).
Where [15] appears, read: dose: 400.0 mg/kg/injection, schedule: Q01DX001 (ip), vehicle: carboxymethylcellulose (CMC).
[16] abbreviates: dose: 50.0 mg/kg/injection, schedule: Q01DX009 (ip), vehicle: saline with Tween-80.
Setting [17] is: dose: 100.0 mg/kg/injection, schedule: Q01DX009 (ip), vehicle: saline with Tween-80.
The mark [18] stands for this setting: dose: 200.0 mg/kg/injection, schedule: Q01DX009 (ip), vehicle: saline with Tween-80.
Setting [19] is: dose: 400.0 mg/kg/injection, schedule: Q01DX009 (ip), vehicle: saline with Tween-80.
Setting [20] is: dose: 100.0 mg/kg/injection, schedule: Q04DX003 (ip), vehicle: saline with Tween-80.
Setting [21] is: dose: 200.0 mg/kg/injection, schedule: Q04DX003 (ip), vehicle: saline with Tween-80.

SMILES strings stand for the structures. Values joined by “and” are separate entries in the source; they are usually repeats but may differ in a detail not shown here. Equal values may be shown once. Toxic doses and inconclusive results are not listed.

`c1nc(Sc2ncnc3nc[nH]c23)c2[nH]cnc2n1`: the T/C reads like this: under setting [1], 108 % of control; (dose: 75.0 mg/kg/injection, schedule: Q01DX015 (ip), vehicle: saline) 114 % of control; under setting [2], 104 % of control; (dose: 150.0 mg/kg/injection, schedule: Q01DX015 (ip), vehicle: other) 213 % of control; under setting [3], 119 % of control; (dose: 238.0 mg/kg/injection, schedule: Q01DX001 (ip), vehicle: saline) 115 % of control. Besides, the T/C is 176 % of control (dose: 300.0 mg/kg/injection, schedule: Q01DX015 (ip), vehicle: other); 117 % of control (dose: 356.0 mg/kg/injection, schedule: Q01DX001 (ip), vehicle: saline); 108 % of control (dose: 600.0 mg/kg/injection, schedule: Q01DX015 (ip), vehicle: other); 117 % of control (dose: 600.0 mg/kg/injection, schedule: Q01DX015 (ip), vehicle: saline).

With `CCOC(=O)C1(C(=O)OCC)CC(=O)c2c(OC)ccc(OC)c2C1`, the T/C under setting [4] is 94 % of control; the T/C under setting [5] is 105 % of control; the T/C under setting [6] is 98 % of control; the T/C under setting [7] was 98 % of control; the T/C under setting [8] was 95 % of control; the T/C under setting [9] was 98 % of control. The T/C runs as follows: under setting [10], 103 % of control; under setting [11], 106 % of control; under setting [12], 111 % of control.

Take `CN(C)S(=O)(=O)c1ccc(CCc2ccc(S(=O)(=O)N(C)C)cc2)cc1`: the T/C under setting [1] is 93 % of control; the T/C under setting [2] is 91 % of control; the T/C under setting [3] was 91 % of control; the T/C (dose: 400.0 mg/kg/injection, schedule: Q01DX001 (ip), vehicle: saline) was 96 % of control.

As for `COC(=O)c1ccccc1N(C)C(=O)Nc1ccc(F)cc1`, the T/C is 94 % of control under setting [13]; 92 % of control and 97 % of control (dose: 100.0 mg/kg/injection, schedule: Q01DX009 (ip), vehicle: carboxymethylcellulose (CMC)); 92 % of control and 100 % of control (dose: 100.0 mg/kg/injection, schedule: Q04DX002 (ip), vehicle: carboxymethylcellulose (CMC)); 104 % of control (dose: 100.0 mg/kg/injection, schedule: Q04DX003 (ip), vehicle: carboxymethylcellulose (CMC)); 101 % of control under setting [14]; 87 % of control and 90 % of control (dose: 200.0 mg/kg/injection, schedule: Q01DX009 (ip), vehicle: carboxymethylcellulose (CMC)). For the same compound, the T/C is 98 % of control and 89 % of control (dose: 200.0 mg/kg/injection, schedule: Q04DX002 (ip), vehicle: carboxymethylcellulose (CMC)); 102 % of control (dose: 200.0 mg/kg/injection, schedule: Q04DX003 (ip), vehicle: carboxymethylcellulose (CMC)); 89 % of control under setting [15]; 98 % of control and 105 % of control (dose: 400.0 mg/kg/injection, schedule: Q01DX009 (ip), vehicle: carboxymethylcellulose (CMC)); 98 % of control (dose: 400.0 mg/kg/injection, schedule: Q04DX002 (ip), vehicle: carboxymethylcellulose (CMC)); 90 % of control (dose: 400.0 mg/kg/injection, schedule: Q04DX003 (ip), vehicle: carboxymethylcellulose (CMC)).

On to `O=C(C[n+]1ccccc1)c1ccc(S(=O)(=O)c2ccccc2)cc1`, for which the T/C under setting [4] is 95 % of control, the T/C under setting [5] was 93 % of control, the T/C under setting [6] was 89 % of control and the T/C under setting [8] was 94 % of control.

Regarding `COc1cccc2c1C(=O)c1c(OC)c(C(Br)Br)cc(OC)c1C2=O`, the T/C (dose: 12.5 mg/kg/injection, schedule: Q01DX009 (ip), vehicle: other) was 99 % of control; the T/C (dose: 25.0 mg/kg/injection, schedule: Q01DX009 (ip), vehicle: other) was 89 % of control; the T/C (dose: 50.0 mg/kg/injection, schedule: Q01DX009 (ip), vehicle: other) is 89 % of control; the T/C (dose: 100.0 mg/kg/injection, schedule: Q01DX009 (ip), vehicle: other) was 89 % of control; the T/C (dose: 200.0 mg/kg/injection, schedule: Q01DX009 (ip), vehicle: other) is 87 % of control.

`C/C=C1\CCOC1=O`: the T/C reads like this: (dose: 100.0 mg/kg/injection, schedule: Q04DX002 (ip), vehicle: saline) 94 % of control; (dose: 200.0 mg/kg/injection, schedule: Q04DX002 (ip), vehicle: saline) 91 % of control; (dose: 400.0 mg/kg/injection, schedule: Q04DX002 (ip), vehicle: saline) 105 % of control.

Turning to `CCOC(=O)C1(C(=O)OCC)C2CC(C)=C(C)CC21` (stereo unspecified), the T/C was 92 % of control (dose: 50.0 mg/kg/injection, schedule: Q01DX009 (ip), vehicle: acetone) and 90 % of control (dose: 100.0 mg/kg/injection, schedule: Q01DX009 (ip), vehicle: acetone).

Consider `c1ccc(CN2CCN(Cc3ccccc3)C2c2ccccc2)cc1`, for which the T/C reads like this: (dose: 25.0 mg/kg/injection, schedule: Q01DX009 (ip), vehicle: saline with Tween-80) 97 % of control; under setting [16], 103 % of control; under setting [17], 106 % of control; under setting [18], 105 % of control; under setting [19], 106 % of control.

Consider `CC12c3ccccc3C(c3ccccc31)C1C(=O)OC(=O)C12` (stereo unspecified), for which the T/C runs as follows: under setting [13], 98 % of control; under setting [20], 90 % of control; under setting [14], 96 % of control; under setting [21], 92 % of control; under setting [15], 93 % of control.

Consider `C=CC/C(=C/CCC)CCC`, for which the T/C is, setting by setting: under setting [16], 95 % of control; under setting [17], 100 % of control; under setting [18], 100 % of control.

`NC(=O)N/N=C/c1[nH]c(=S)[nH]c(=O)c1Cc1ccc(Br)cc1`: the T/C was 107 % of control (dose: 100.0 mg/kg/injection, schedule: Q01DX001 (ip), vehicle: saline with Tween-80); 95 % of control (dose: 200.0 mg/kg/injection, schedule: Q01DX001 (ip), vehicle: saline with Tween-80); 98 % of control (dose: 400.0 mg/kg/injection, schedule: Q01DX001 (ip), vehicle: saline with Tween-80).

With `COc1ccc(/C=C2/N=C(C)OC2=O)cc1`, the T/C is, setting by setting: under setting [7], 92 % of control; under setting [9], 98 % of control; under setting [11], 102 % of control.

For the compound `COc1ccc(-c2nc(SCc3ccccc3)[nH]c(=O)c2CCO)cc1`, the T/C by setting is: under setting [8], 95 % of control; under setting [10], 88 % of control; under setting [12], 93 % of control.

In the case of `Cc1cccc(Cl)c1NC(=O)CC#N`, the T/C was 97 % of control under setting [17]; 97 % of control (dose: 100.0 mg/kg/injection, schedule: Q04DX002 (ip), vehicle: saline with Tween-80); 95 % of control under setting [18]; 97 % of control (dose: 200.0 mg/kg/injection, schedule: Q04DX002 (ip), vehicle: saline with Tween-80); 100 % of control under setting [19]; 97 % of control (dose: 400.0 mg/kg/injection, schedule: Q04DX002 (ip), vehicle: saline with Tween-80).

On to `O=c1nc(NO)ccn1C1CCCCO1` (stereo unspecified), for which the T/C was 95 % of control under setting [13], 95 % of control under setting [14] and 95 % of control under setting [15].

As for `C=CCNC(=S)N/N=C\c1cc(OC)c(OC)c(OC)c1`, the T/C is 96 % of control under setting [20]; 94 % of control under setting [21]; 98 % of control (dose: 400.0 mg/kg/injection, schedule: Q04DX003 (ip), vehicle: saline with Tween-80).

In the case of `Clc1ccc(Sc2ccccc2)cc1`, the T/C is 105 % of control under setting [8], 88 % of control under setting [10] and 105 % of control under setting [12].
